Reference: ChEMBL document CHEMBL2086330, “Ras inhibition via direct Ras binding--is there a path forward?” (Bioorg Med Chem Lett, 2012)
Values belong to the compound of their own block, whether it stands above or below them.

Assays:
[1] = Binding affinity to Ras SOS1 binding site
[2] = Inhibition of Ras assessed as inhibition of intrinsic nucleotide exchange in cell-based assay
[3] = biological target: T1, Son of sevenless homolog 1 (Homo sapiens, UniProt Q07889); assay: Inhibition to His6-tagged Sos1 catalytic domain-mediated nucleotide exchange by fluorimetric assay
T1 sequence (Q07889 whole entry): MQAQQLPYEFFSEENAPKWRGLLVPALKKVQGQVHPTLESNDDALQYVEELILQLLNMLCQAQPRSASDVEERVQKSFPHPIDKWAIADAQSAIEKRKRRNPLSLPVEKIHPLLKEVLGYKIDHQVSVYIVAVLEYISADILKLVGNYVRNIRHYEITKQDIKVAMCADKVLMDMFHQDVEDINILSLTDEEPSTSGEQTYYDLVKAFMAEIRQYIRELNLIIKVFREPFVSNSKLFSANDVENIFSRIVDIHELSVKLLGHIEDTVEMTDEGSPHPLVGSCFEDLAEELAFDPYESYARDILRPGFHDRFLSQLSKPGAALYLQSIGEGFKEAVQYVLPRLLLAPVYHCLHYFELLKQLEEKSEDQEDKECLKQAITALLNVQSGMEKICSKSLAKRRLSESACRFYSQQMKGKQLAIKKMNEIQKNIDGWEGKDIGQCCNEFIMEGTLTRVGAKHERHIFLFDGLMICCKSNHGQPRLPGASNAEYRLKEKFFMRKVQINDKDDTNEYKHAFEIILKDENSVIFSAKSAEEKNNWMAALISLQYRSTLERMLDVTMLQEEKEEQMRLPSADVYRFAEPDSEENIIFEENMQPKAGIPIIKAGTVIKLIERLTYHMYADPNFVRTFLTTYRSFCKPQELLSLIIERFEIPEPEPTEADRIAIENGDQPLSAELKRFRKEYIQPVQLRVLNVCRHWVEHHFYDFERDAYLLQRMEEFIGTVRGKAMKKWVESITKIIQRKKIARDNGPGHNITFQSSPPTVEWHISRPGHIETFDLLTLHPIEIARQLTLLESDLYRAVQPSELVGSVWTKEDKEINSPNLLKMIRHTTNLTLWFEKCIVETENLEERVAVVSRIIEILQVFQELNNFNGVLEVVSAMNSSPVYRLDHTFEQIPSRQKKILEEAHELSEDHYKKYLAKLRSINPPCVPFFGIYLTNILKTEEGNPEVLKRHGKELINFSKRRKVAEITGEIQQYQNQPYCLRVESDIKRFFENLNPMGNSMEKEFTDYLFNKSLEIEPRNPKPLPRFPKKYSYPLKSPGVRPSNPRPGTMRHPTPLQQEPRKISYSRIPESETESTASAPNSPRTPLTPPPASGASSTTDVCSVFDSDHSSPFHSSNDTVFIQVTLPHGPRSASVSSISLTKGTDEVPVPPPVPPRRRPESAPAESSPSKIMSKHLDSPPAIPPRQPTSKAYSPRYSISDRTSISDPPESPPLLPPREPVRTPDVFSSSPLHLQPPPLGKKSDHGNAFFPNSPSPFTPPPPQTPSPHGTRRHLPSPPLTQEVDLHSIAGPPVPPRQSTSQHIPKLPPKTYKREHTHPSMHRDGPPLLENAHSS

[4] = biological target: GTPase NRas (Homo sapiens, UniProt P01111); assay: Inhibition of N-Ras expressed in Escherichia coli using [3H]GDP and [3H]GTP assessed as inhibition of intrinsic nucleotide exchange by scintillation counting
[5] = biological target: GTPase KRas (Homo sapiens, UniProt P01116, G12D); assay: Binding affinity to K-Ras G12D mutant-GDP complex
Chain of GTPase KRas (P01116 whole entry G12D): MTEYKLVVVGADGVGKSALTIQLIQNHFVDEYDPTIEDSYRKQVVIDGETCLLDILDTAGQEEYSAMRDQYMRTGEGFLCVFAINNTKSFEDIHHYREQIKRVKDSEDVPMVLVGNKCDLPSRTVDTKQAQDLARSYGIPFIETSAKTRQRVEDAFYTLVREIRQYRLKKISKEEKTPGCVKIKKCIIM

Chain of GTPase NRas (P01111 whole entry): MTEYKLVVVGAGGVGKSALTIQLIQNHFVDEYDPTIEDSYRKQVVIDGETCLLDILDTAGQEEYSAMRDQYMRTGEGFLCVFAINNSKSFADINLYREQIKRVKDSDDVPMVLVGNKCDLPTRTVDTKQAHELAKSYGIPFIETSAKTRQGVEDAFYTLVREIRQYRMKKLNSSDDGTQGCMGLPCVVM

Structure (SMILES): O=S(=O)(NCCOc1ccc2ccccc2c1)c1ccc(NO)cc1
- EC50 [2]: 10 µM

Structure (SMILES): c1ccc2c(Cc3nc4ccncc4[nH]3)c[nH]c2c1
- Activity [1]: 1.3 mM

Structure (SMILES): CC[C@H](C)[C@H](N)C(=O)Nc1ccc2nc(Cc3c[nH]c4ccccc34)[nH]c2c1
- Kd [5]: 190 µM

Structure (SMILES): Oc1ccccc1C(=S)N1CCCC1
- Activity [1]: 1.3 mM

The next lines start with the values.

- Activity [1]: 1.3 mM
Structure (SMILES): Nc1cccc(NS(=O)(=O)c2ccc(F)cc2)n1

- IC50 [3]: 25 µM
Structure (SMILES): CC[C@H](C)[C@H](NC(=O)CN1C/C=C\CCC(=O)N[C@@H](Cc2ccccc2)C(=O)N[C@@H](CCC(=O)O)C1=O)C(=O)N[C@@H](Cc1ccc(O)cc1)C(=O)N[C@@H](CCCNC(=N)N)C(=O)N[C@@H](CC(C)C)C(=O)N[C@@H](CCC(=O)O)C(=O)N[C@@H](CC(C)C)C(=O)N[C@@H](CC(C)C)C(=O)N[C@@H](CCCCN)C(=O)N[C@@H](C)C(=O)N[C@@H](CCC(=O)O)C(=O)N[C@@H](CCC(=O)O)C(=O)N[C@@H](C)C(=O)N[C@@H](CC(N)=O)C(N)=O

- IC50 [4]: 0.5 µM
Structure (SMILES): O=S(=O)(c1ccc(NO)cc1)N(CCOc1ccc2ccccc2c1)[C@@H]1O[C@H](CO)[C@@H](O)[C@H](O)[C@H]1O
